Laboratory results taken from patent publication US20160166560A1, “Urea Compounds and Their Use as FAAH Enzyme Inhibitors” (BIAL-PORTELA & Cª, S.A., priority 2013, published 2016).
Structures can show the parent of a compound that is named as a salt.

How the values were obtained:
CYPs = CYPs metabolic stability assay in HLM (human liver microsomes); format: in vitro ADME; conditions: HLM 1 mg/ml protein, compound 5 μM, 60 min, 37° C.; for Control (% remain): absence of NADPH; for CYP+ (% remain): with NADPH 1 mM
Protocol: Stability of the test compounds was performed in HLM (human liver microsomes) in the presence and in the absence of NADPH.
The stability was measured using the incubation mixture (100 μl total volume) contained 1 mg/ml total protein, MgCl2 5 mM and 50 mM K-phosphate buffer. Samples were incubated in the presence and in the absence of NADPH 1 mM. Reactions were pre-incubated 5 min and the reaction initiated with the compound under test (at a concentration of 5 μM). Samples were incubated for 60 min in a shaking water bath at 37° C. The reaction was stopped by adding 100 μl of acetonitrile. Samples were then centrifuged, filtered and supematant injected in HLPC-MSD. Test compounds were dissolved in DMSO and the final concentration of DMSO in the reaction was below 0.5% (v/v). At T0 acetonitrile was added before adding the compound. All experiments were performed with samples in duplicate.

FAAH [1] = target: T1, FAAH (Mus musculus, UniProt O08914); assay: In vitro/ex vivo FAAH activity determination in brain after intra-tracheal instillation; parameters: Liver and brain fragments were removed and processed for enzymatic activity determination; from tissue; species or system male NMRI mice; conditions: remaining enzymatic activity vs controls, 1 mg/kg intra-tracheal instillation, sacrificed after 8 h
T1 sequence (O08914 1-579): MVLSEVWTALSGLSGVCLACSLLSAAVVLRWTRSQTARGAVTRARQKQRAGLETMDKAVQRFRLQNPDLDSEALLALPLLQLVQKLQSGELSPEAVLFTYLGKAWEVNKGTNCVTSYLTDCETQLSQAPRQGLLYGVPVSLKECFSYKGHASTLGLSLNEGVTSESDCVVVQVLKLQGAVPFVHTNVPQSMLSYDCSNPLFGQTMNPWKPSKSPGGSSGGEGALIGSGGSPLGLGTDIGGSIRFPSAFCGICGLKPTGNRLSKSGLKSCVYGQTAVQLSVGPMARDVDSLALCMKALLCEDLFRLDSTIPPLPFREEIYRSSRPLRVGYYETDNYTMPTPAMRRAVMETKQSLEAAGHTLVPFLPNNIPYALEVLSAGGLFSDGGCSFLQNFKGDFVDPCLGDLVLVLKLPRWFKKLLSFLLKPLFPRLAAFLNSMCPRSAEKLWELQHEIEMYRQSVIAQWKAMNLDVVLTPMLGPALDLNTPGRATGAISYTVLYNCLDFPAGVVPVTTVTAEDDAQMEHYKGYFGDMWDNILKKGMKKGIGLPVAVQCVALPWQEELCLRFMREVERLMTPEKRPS
Protocol: (§1) To evaluate the selectivity of test compounds in inhibiting FAAH activity, male NMRI mice were administrated following instillation with 1 mg/kg compound and were sacrificed after 8 h treatment. Liver and brain fragments were removed and processed for enzymatic activity determination.
(§2) FAAH activity was measured as the amount of ^3H-ethanolamine formed, by liquid scintillation counting, from the hydrolysis of the substrate anandamide (AEA, labeled with ^3H on the ethanolamine part of the molecule). The percentage of remaining enzymatic activity was calculated in respect to controls and after blank subtraction. Therefore, a low value for the test compounds indicates a strong inhibitor.
(§3) Male NMRI mice (body weight range: 25-35 g) were obtained from Harlan Laboratories (Barcelona, Spain). Animals were kept 10 per cage, under controlled environmental conditions (12 hr light [8 am]/12 hr dark [8 pm]cycle; room temperature 22±1° C.). Food and tap water were allowed ad libitum. Animals were habituated to the animal facilities at least for a week prior to experiments. The experiments were all carried out during daylight hours.
(§4) Animals were fasted overnight before administration of compounds. […] After administration the animals were given atipamezole (1 mg/kg) to reverse the sedative and analgesic effects induced by the anaesthesia.
(§5) Fifteen minutes before sacrifice, animals were anesthetized with pentobarbital 60 mg/kg administrated intra-peritoneally. The brain (without cerebellum) and a fragment of liver were collected into plastic vials containing membrane buffer (3 mM MgCl2, 1 mM EDTA, 50 mM Tris HCl, pH 7.4). Glass beads (2.5 mm BioSpec Products, Bartlesville, Okla., USA) were added to the vials containing the brain and liver tissues. Tissues were stored at −20° C. until analysis.
(§6) Anandamide [ethanolamine-1-^3H-] was obtained from American Radiochemicals—with a specific activity of 60 Ci/mmol. All other reagents were obtained from Sigma-Aldrich. Optiphase Supermix was obtained from Perkin Elmer.
(§7) Brain and liver tissues were thawed and homogenized in 10 volumes of membrane buffer (3 mM MgCl2, 1 mM EDTA, 50 mM Tris HCl, pH 7.4) with homogenizer Precellys 24 Dual Tissue Homogenizer (Bertin Technologies) for 2 cycles of 5 sec (5000 rpm).
(§8) Total protein in the tissue homogenates was determined with the BioRad Protein Assay (BioRad) using a standard curve of BSA ([…]). Tissue homogenates were diluted to appropriate concentration for enzymatic determination in assay buffer (1 mM EDTA, 10 mM Tris HCl, pH 7.6).
(§9) Reaction mix (total volume 200 μL) contained 2 μM AEA (2 μM AEA+5 nM ^3H-AEA), 0.1% fatty acid free BSA, 15 μg (brain) or 5 μg (liver) protein, in assay buffer (1 mM EDTA, 10 mM Tris pH 7.6).
(§10) The test compound was used at a level of 1 mg/kg protein. After 15 minutes pre-incubation at 37° C. of the protein sample, reaction was started by the addition of the substrate solution (cold AEA+radiolabelled AEA+BSA). Reaction was carried out for 12 minutes for brain and liver tissues. Reaction was terminated by addition of 400 μL chloroform:methanol (1:1, v/v) solution. Reaction samples were vortex twice, left on ice for 5 minutes and then centrifuged in the microfuge for 7 minutes, 7000 rpm. 200 μL of the obtained supernatants were added to […] Optiphase Supermix scintillation cocktail previously distributed in 24-well plates.
(§11) Counts per minute (cpm) were determined in a Microbeta TriLux scintillation counter. In each assay blank samples (without protein) were prepared.

FAAH [2] = target: T1, FAAH; assay: In vitro/ex vivo FAAH activity determination in liver after intra-tracheal instillation; parameters: Liver and brain fragments were removed and processed for enzymatic activity determination; from tissue; host or cells: mouse liver fragment homogenate; species or system male NMRI mice; conditions: remaining enzymatic activity vs controls, 1 mg/kg intra-tracheal instillation, sacrificed after 8 h
Protocol: as §1, §2, §3, §4, §5, §6, §7, §8, §9, §10, §11

Control (% remain) (CYPs) | CYP+ (% remain) (CYPs) | FAAH Activity - Brain itc (% C) (FAAH [1]) | FAAH Activity - Liver itc (% C) (FAAH [2]) | FAAH Activity - Brain itc (% C) (FAAH [1]; methanesulfonate, 1 mg/kg) | FAAH Activity - Liver itc (% C) (FAAH [2]; methanesulfonate, 1 mg/kg) | FAAH Activity - Brain itc (% C) (FAAH [1]; maleate, 1 mg/kg) | FAAH Activity - Liver itc (% C) (FAAH [2]; maleate, 1 mg/kg) | Structure (SMILES)
 |  |  |  | 113.8 | 10.7 |  |  | CN(C(=O)n1cnc(-c2cccc(NC(N)=O)c2)c1)C1CCN(Cc2ccccc2)CC1 [Example 22, N-(1-benzylpiperidin-4-yl)-N-methyl-4-(3-ureidophenyl)-1H-imidazole-1-carboxamide methanesulfonate]
84.8 | 66.0 | 91.0 | 3.4 |  |  |  |  | CN(C(=O)n1cnc(-c2ccc(OS(N)(=O)=O)cc2)c1)C1CCN(c2ccc(O)cc2)CC1 [Example 28, 4-(1-((1-(4-hydroxyphenyl)piperidin-4-yl)(methyl)carbamoyl)-1H-imidazol-4-yl)phenyl sulfamate hydrochloride]
94.4 | 87.1 | 91.1 | 3.0 |  |  |  |  | CN(C(=O)n1cnc(-c2cccc(OS(N)(=O)=O)c2)c1)C1CCN(c2ccc(O)cc2)CC1 [Example 15, 3-(1-((1-(4-hydroxyphenyl)piperidin-4-yl)(methyl)carbamoyl)-1H-imidazol-4-yl)phenyl sulfamate hydrochloride]
 |  | 86.4 | 15.8 |  |  |  |  | COc1cccc(CN2CCC(N(C)C(=O)n3cnc(-c4cccc(NS(N)(=O)=O)c4)c3)CC2)c1.O=C(O)/C=C\C(=O)O.O=C(O)/C=C\C(=O)O [Example 20, N-(1-(3-methoxybenzyl)piperidin-4-yl)-N-methyl-4-(3-(sulfamoylamino)phenyl)-1H-imidazole-1-carboxamide dimaleate]
 |  | 110.2 | 3.4 |  |  |  |  | CN(C(=O)n1cnc(-c2cccc(C(N)=O)c2)c1)C1CCN(c2ccccc2O)CC1 [Example 37, 4-(3-carbamoylphenyl)-N-(1-(2-hydroxyphenyl)piperidin-4-yl)-N-methyl-1H-imidazole-1-carboxamide hydrochloride]

The next lines start with the compound.

Structure (SMILES) | Control (% remain) (CYPs) | CYP+ (% remain) (CYPs) | FAAH Activity - Brain itc (% C) (FAAH [1]) | FAAH Activity - Liver itc (% C) (FAAH [2]) | FAAH Activity - Brain itc (% C) (FAAH [1]; methanesulfonate, 1 mg/kg) | FAAH Activity - Liver itc (% C) (FAAH [2]; methanesulfonate, 1 mg/kg) | FAAH Activity - Brain itc (% C) (FAAH [1]; maleate, 1 mg/kg) | FAAH Activity - Liver itc (% C) (FAAH [2]; maleate, 1 mg/kg)
CN(C(=O)n1cnc(-c2cccc(OS(N)(=O)=O)c2)c1)C1CCN(c2ccc(Br)c(O)c2)CC1 [Example 29, 3-(1-((1-(4-bromo-3-hydroxyphenyl)piperidin-4-yl)(methyl)carbamoyl)-1 H-imidazol-4-yl)phenyl sulfamate hydrochloride] | 79.6 | 79.5 | 97.6 | 10.5 |  |  |  | 
CN(C(=O)n1cnc(-c2cccc(NC(N)=O)c2)c1)C1CCN(c2ccc(O)cc2)CC1 [Example 25, N-(1-(4-hydroxyphenyl)piperidin-4-yl)-N-methyl-4-(3-ureidophenyl)-1 H-imidazole-1-carboxamide hydrochloride] | 61.5 | 49.1 | 100.7 | 9.0 |  |  |  | 
COc1cc(CN2CCC(N(C)C(=O)n3cnc(-c4ccc(OS(N)(=O)=O)cc4)c3)CC2)ccc1F [Example 12, 4-(1-((1-(4-fluoro-3-methoxybenzyl)piperidin-4-yl)(methyl)carbamoyl)-1 H-imidazol-4-yl)phenyl sulfamate oxalate] | 106.2 | 7.9 | 108.7 | 3.8 |  |  |  | 
COc1cc(CN2CCC(N(C)C(=O)n3cnc(-c4cccc(OS(N)(=O)=O)c4)c3)CC2)cc(OC)c1.Cl [Example 9, 3-(1-((1-(3,5-dimethoxybenzyl)piperidin-4-yl)(methyl)carbamoyl)-1H-imidazol-4-yl)phenyl sulfamate hydrochloride] | 102.5 | 62.8 | 107.2 | 3.9 |  |  |  | 
COc1cc(CN2CCC(N(C)C(=O)n3cnc(-c4cccc(OS(N)(=O)=O)c4)c3)CC2)ccc1F [Example 10, 3-(1-((1-(4-fluoro-3-methoxybenzyl)piperidin-4-yl)(methyl)carbamoyl)-1H-imidazol-4-yl)phenyl sulfamate hydrochloride] | 100.0 | 5.8 | 113.4 | 3.2 |  |  |  | 
COc1cccc(CN2CCC(N(C)C(=O)n3cnc(-c4cccc(C(N)=O)c4)c3)CC2)c1 [Example 13, 4-(3-carbamoylphenyl)-N-(1-(3-methoxybenzyl)piperidin-4-yl)-N-methyl-1H-imidazole-1-carboxamide hydrochloride] | 103.5 | 25.1 |  |  |  |  |  | 
COc1cc(CN2CCC(N(C)C(=O)n3cnc(-c4ccc(OS(N)(=O)=O)cc4)c3)CC2)cc(OC)c1 [Example 19, 4-(1-((1-(3,5-dimethoxybenzyl)piperidin-4-yl)(methyl)carbamoyl)-1H-imidazol-4-yl)phenyl sulfamate maleate] |  |  |  |  |  |  | 99.2 | 9.2
COc1ccccc1CN1CCC(N(C)C(=O)n2cnc(-c3cccc(C(N)=O)c3)c2)CC1 [Example 38, 4-(3-carbamoylphenyl)-N-(1-(2-methoxybenzyl)piperidin-4-yl)-N-methyl-1H-imidazole-1-carboxamide hydrochloride] |  |  | 96.5 | 6.0 |  |  |  | 
CN(C(=O)n1cnc(-c2cccc(C(N)=O)c2)c1)C1CCN(Cc2ccccc2O)CC1 [Example 36, 4-(3-carbamoylphenyl)-N-(1-(2-hydroxybenzyl)piperidin-4-yl)-N-methyl-1 H-imidazole-1-carboxamide hydrochloride] |  |  | 94.4 | 8.6 |  |  |  | 
